# Laboratory results: patent US4980163A, “Novel bacteriocin compositions for use as enhanced broad range bactericides and methods of preventing and treating microbial infection” (Public Health Research Institute of the City of New York, priority 1989, dated 1990)
# Values joined by “and” are separate entries in the source; they are usually repeats but may differ in a detail not shown here. Equal values may be shown once. Where no end group is shown, it is not given here.
# System: Staphylococcus aureus
# Test: Bactericidal activity in milk, percent bacterial survival (Example 1, Table 1)
# Type: cell-based
# Details: for % survival 2 hr: initial viable counts 5 × 10^7 cfu/ml
# Experimental: All tests in the following examples were performed at 37° C. The efficacy of the enhanced broad range bactericides was determined by assaying bactericidal activity as measured by the percent bacterial survival after treatment with the bactericide. Generally, after incubation of a 10^7 cell per ml suspension of target species with the novel bactericide for specified lengths of time, bacteria were collected by centrifugation for 2 minutes. The bacterial pellet was washed free of the bactericide with a rescue buffer, termed herein Phage buffer (50 mM Tris-HCl buffer pH 7.8, 1 mM MgSO4, 4 mM CaCl2, 0.1M NaCl, and 0.1% gelatin), resuspended and serially diluted into Phage buffer, and 100 μl of the suspended bacteria were spread on nutrient agar plates. Surviving bacteria were determined by scoring colony forming units (CFU) after incubation for 24-48 hours at 37° C. An effective bactericide according to this invention is one which allows less than 0.1% of the initial viable count of the bacteria to survive.
# Staphylococcus aureus cells were suspended and incubated in milk at 37° C. for 2 hours with various concentrations of lysostaphin, nisin, or a combination of lysostaphin and nisin in the milk. The bactericidal efficacy of the bactericides was estimated by determining the percent survival of bacteria as described above.
Substance,"% survival 2 hr (Lysostaphin 1.0 μg/ml, Nisin 0, milk, 37° C.)",log reduction in viable cells (Lysostaphin alone 1.0 μg/ml in milk),"% survival 2 hr (Nisin 0.2 μg/ml, Lysostaphin 0, milk, 37° C.) [%]","% survival 2 hr (Nisin 0.5 μg/ml, Lysostaphin 0, milk, 37° C.) [%]","% survival 2 hr (Nisin 1.0 μg/ml, Lysostaphin 0, milk, 37° C.) [%]","% survival 2 hr (Nisin 2.0 μg/ml, Lysostaphin 0, milk, 37° C.)","% survival 2 hr (Nisin 4.0 μg/ml, Lysostaphin 0, milk, 37° C.) [%]","bactericidal activity in milk (in words) (milk, 37° C.)"
Lysostaphin,< 10^-3%,more than a five log reduction,,,,,,
"Nisin (ITSISLCTPGCKTGALMGCNMKTATCHCSIHVSK; also: lantibiotic nisin-A: lanthionine rings and dehydrated residues, places not given here; UniProt P13068 24-57, looked up) [lanthionine containing peptide bacteriocin produced by Streptococcus lactis]",,,45,33,9,2.5% and 0.5%,0.5,little practical bactericidal activity
